# Data taken from PMC6253949, “The Inhibitory Action of Kohamaic Acid A Derivatives on Mammalian DNA Polymerase β” (Molecules, 2008).
# What was measured:
# T7 RNA polymerase = target: T1, T7 RNA polymerase (Escherichia phage T7, UniProt P00573); test: T7 RNA polymerase assay; type: biochemical
# T1 construct: purchased Takara (Kyoto, Japan)
# Text: (§1) Pol α was purified from calf thymus by immuno-affinity column chromatography as described by Tamai et al.. Recombinant rat pol β was purified from E. coli JMpβ5 as described by Date et al.. The human pol γ catalytic gene was cloned into pFastBac. Histidine-tagged enzyme was expressed using the BAC-TO-BAC HT Baculovirus Expression System according to the supplier's manual (LIFE TECHNOLOGIES, MD, USA) and purified using ProBoundresin (Invitrogen Japan, Tokyo, Japan). Human pols δ and ε were purified by the nuclear fractionation of human peripheral blood cancer cells (Molt-4) using the second subunit of pols δ and ε-conjugated affinity column chromatography, respectively. Recombinant human pols η and ι tagged with His6 at their C-terminal were expressed in SF9 insect cells using the baculovirus expression system, and were purified as described previously. A truncated form of pol κ (i.e., hDINB1DC) with 6 x His-tags attached at the C-terminal was overproduced using the BAC-to-BAC Baculovirus Expression System kit (GIBCO BRL, MD, USA) and purified as described previously. […]
# The primase activity of calf pol α, the activities of T7 RNA polymerase, T4 polynucleotide kinase and bovine DNase I were measured in standard assays according to the manufacturer's specifications as described by Tamiya-Koizumi et al., Nakayama et al., Soltis et al., and Lu and Sakaguchi, respectively.
# Human DNA polymerase γ = target: T2, Human DNA polymerase γ (Homo sapiens, UniProt P54098); test: DNA polymerase assay, human pol γ; type: biochemical
# T2 construct: His tag; made in house; host or cells: baculovirus expression system (insect cells)
# T2 sequence (P54098 1-1239): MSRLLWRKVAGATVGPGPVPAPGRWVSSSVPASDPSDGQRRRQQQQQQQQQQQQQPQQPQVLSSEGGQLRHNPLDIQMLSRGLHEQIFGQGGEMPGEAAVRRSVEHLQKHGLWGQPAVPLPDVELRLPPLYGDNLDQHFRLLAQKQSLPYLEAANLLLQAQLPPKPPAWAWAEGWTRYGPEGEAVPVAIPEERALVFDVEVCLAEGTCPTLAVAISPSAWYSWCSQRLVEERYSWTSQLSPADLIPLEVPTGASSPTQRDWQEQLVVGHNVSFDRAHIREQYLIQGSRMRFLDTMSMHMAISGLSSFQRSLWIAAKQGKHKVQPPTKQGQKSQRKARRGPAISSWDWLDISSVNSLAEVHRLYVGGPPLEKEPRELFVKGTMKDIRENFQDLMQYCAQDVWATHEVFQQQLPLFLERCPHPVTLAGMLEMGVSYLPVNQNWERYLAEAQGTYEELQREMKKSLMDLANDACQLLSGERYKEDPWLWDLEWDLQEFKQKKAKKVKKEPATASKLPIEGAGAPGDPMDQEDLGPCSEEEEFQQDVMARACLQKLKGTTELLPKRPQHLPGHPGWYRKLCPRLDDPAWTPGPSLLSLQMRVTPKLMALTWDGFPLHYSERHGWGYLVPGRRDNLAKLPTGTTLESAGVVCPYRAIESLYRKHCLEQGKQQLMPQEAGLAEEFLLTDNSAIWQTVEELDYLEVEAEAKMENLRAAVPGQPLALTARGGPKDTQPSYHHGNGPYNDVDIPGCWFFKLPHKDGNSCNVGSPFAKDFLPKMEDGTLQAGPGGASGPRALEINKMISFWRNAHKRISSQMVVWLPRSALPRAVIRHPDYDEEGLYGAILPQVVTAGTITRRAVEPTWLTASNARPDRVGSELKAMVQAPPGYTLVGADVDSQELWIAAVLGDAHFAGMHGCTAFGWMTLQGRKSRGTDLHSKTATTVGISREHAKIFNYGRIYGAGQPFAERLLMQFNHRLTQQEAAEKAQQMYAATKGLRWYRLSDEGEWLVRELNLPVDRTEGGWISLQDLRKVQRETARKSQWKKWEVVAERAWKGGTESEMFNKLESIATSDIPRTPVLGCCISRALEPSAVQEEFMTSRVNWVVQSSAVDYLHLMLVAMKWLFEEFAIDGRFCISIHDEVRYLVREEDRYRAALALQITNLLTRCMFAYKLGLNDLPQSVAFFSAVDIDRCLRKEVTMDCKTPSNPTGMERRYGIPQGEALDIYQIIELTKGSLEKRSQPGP
# Text: as §1
# For pols, poly(dA)/oligo(dT)12-18 (A/T = 2/1) and dTTP were used as the DNA template-primer and nucleotide (i.e., dNTP) substrate, respectively. […] Activity without the inhibitor was considered 100%, and the remaining activity at each concentration of the inhibitor was determined relative to this value. […]
# T1 sequence (P00573 whole entry): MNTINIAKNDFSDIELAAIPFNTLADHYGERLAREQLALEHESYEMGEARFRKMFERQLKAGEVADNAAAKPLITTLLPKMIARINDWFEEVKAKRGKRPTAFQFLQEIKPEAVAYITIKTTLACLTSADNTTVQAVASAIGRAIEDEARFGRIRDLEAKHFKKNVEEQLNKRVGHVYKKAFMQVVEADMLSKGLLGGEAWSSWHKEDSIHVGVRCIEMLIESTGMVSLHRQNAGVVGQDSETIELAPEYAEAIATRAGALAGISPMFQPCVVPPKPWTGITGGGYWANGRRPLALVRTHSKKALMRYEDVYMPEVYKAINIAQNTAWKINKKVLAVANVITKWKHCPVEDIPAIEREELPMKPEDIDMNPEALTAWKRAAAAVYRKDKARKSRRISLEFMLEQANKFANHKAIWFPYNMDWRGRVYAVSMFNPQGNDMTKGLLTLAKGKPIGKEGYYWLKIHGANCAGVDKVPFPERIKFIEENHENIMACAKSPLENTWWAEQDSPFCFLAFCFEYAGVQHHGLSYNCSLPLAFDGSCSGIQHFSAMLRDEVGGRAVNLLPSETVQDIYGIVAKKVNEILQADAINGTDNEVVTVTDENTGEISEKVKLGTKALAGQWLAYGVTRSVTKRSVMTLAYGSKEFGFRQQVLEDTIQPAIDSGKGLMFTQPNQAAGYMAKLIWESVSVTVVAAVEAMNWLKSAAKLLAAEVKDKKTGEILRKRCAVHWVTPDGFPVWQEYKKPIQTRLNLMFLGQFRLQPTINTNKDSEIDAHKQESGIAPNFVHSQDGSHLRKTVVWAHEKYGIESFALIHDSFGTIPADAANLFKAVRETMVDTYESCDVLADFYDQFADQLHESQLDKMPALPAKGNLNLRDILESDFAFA
smiles,measurement,setting,value
"CC1=CC[C@H]2C(C)(C)CCC[C@]2(C)[C@H]1CCCCCCCCCCCCCCCCC(=O)O (relative stereo) [compound 11, (1S*,4aS*,8aS*)-17-(1,4,4a,5,6,7,8,8a-octahydro-2,5,5,8a-tetramethylnaphthalen-1-yl)heptadecanoic acid]",Influence on T7 RNA polymerase activity,T7 RNA polymerase,not influenced
same,IC50,Human DNA polymerase γ,8.76 ± 0.44 µM
